Results reported in US20200023067A1, “DUAL-ACTION ELAFIBRANOR METFORMIN SALT FOR TREATING OBESITY ASSOCIATED WITH NON-ALCOHOLIC STEATOHEPATITIS (NASH) AND […]” (NASHPHARM, priority 2016, published 2020).
Converted amounts (≈) assume the structure as drawn. “And” between values parts separate entries of the source, which are not always exact repeats. Equal entries are not always repeated. Where two headings read alike, the source gives them in different places.

Assays:
Type in all cases: physicochemical
[1] = Thermodynamic solubility of elafibranor in aqueous buffers and cosolvents; settings: for solubility at 72 h / solubility at 24 h / solubility: 23 °C, thermodynamic from solid; for solubility at 72 h / solubility at 24 h: ambient temperature (22°-24° C.); for solubility at 72 h: read-out: Solubility after 72 hours; for solubility at 24 h: read-out: Solubility after 24 hours
Procedure: The thermodynamic solubility of the basic elafibranor is studied over a period of 24 hours and 72 hours in various aqueous buffers in the presence or not of surfactants. Batch number EM0274L2 is used for this work. After 24 hours and 72 hours of incubation at ambient temperature (22°-24° C.), the solutions are sampled and then filtered over 0.2 μm polycarbonate filters in flasks for LCMS analyses, and diluting once in DMSO before stirring for 2 minutes (vortex or sonification).

[2] = Solubility test on the elafibranor (GFT505) metformin salt; settings: aqueous buffer, thermodynamic from solid
Procedure: The solubility kinetics is determined in an aqueous medium (water and pharmacopoeia buffers), at ambient temperature.

[3] = Stability after exposure to light and temperature, by UPLC MS; settings: powder form or solution; daylight, ambient temperature; compared with the salt
Procedure: The products were exposed to daylight and to ambient temperature.
The reference samples for their part are stored cool (2°-8° C.), protected from light by aluminum paper and under inert gas for the solid product.

[4] = Thermodynamic solubility of elafibranor in aqueous buffers and cosolvents; settings: for solubility at 24 h: read-out: Solubility after 24 hours
[5] = Solubility test on the elafibranor (GFT505) metformin salt; settings: organic solvent or mixture, thermodynamic from solid, ambient temperature
[6] = aqueous buffer, aqueous buffer, Buffer pH 4.6
[7] = aqueous buffer, aqueous buffer, Buffer pH 7.4
[8] = aqueous buffer, aqueous buffer, Buffer pH 8.5

solubility at 72 h ([1]; organic solvent or mixture, Propylene glycol): 35100 µM and 13500 µg/mL | solubility at 24 h [1, 6]: 114 µM and 44 µg/mL | solubility at 72 h [1, 6]: 110 µM and 42 µg/mL | solubility at 24 h [1, 7]: 504 µM and 194 µg/mL | solubility at 72 h [1, 7]: 609 µM and 234 µg/mL | solubility at 24 h [1, 8]: 4420 µM and 1700 µg/mL | solubility at 72 h [1, 8]: 4270 µM and 1640 µg/mL | solubility ([1]; aqueous buffer, pH 4.6, aqueous buffer): 114 µM (≈ 43.8 µg/mL) | solubility ([1]; aqueous buffer, pH 8.5, aqueous buffer): 4420 µM (≈ 1700 µg/mL) | Solubility in an aqueous medium ([1]; aqueous medium): low | solubility ([2]; Buffer pH 4.6, ambient temperature): 114 µM and 44 µg/mL | solubility ([2]; Buffer pH 7.4, ambient temperature): 504 µM and 194 µg/mL | solubility ([2]; Buffer pH 8.5, ambient temperature): 4420 µM and 1700 µg/mL | Sensitivity to light (photosensitivity) [3]: more sensitive to light | solubility at 24 h ([4]; 23 °C, organic solvent or mixture, thermodynamic from solid, Polyethylene glycol 400, ambient temperature (22°-24° C.)): 39000 µM and 15000 µg/mL | solubility at 72 h ([4]; 23 °C, organic solvent or mixture, thermodynamic from solid, Polyethylene glycol 400, ambient temperature (22°-24° C.), read-out: Solubility after 72 hours): 41000 µM and 15800 µg/mL | solubility at 24 h ([4]; 23 °C, organic solvent or mixture, thermodynamic from solid, Propylene glycol, ambient temperature (22°-24° C.)): 33500 µM and 12900 µg/mL | Effect of cosolvent on solubility ([4]; addition of cosolvent such as propylene glycol or PEG 400): significantly improves the solubility | solubility ([5]; Polyethylene glycol 400): 39000 µM and 15000 µg/mL | solubility ([5]; Propylene glycol): 33500 µM and 12900 µg/mL
Compound: CSc1ccc(C(=O)/C=C/c2cc(C)c(OC(C)(C)C(=O)O)c(C)c2)cc1 [elafibranor, 2-[2,6 dimethyl-4-[3-[4-(methylthio)phenyl]-3-oxo-1(E)-propenyl]phenoxyl]-2-methylpropanoic acid]
